Results taken from patent US6566047B1, “Method for identifying neurite-growth promoting agents” (The Regents of the University of Colorado, priority 1998, dated 2003).
Where two headings read alike, the source gives them in different places.

What was measured:
[1] = tested on: growth cone PLC; assay: Phospholipase C assay (DG release) in GCPs; type: biochemical, rat; details: GCPs; thrombin 100 nM; calcium-dependent
From the text: All assays were run in triplicate.

[2] = tested on: growth cones in cultures of rat cerebral cortex; assay: Growth cone collapse assay in cortical neuron culture; type: cell-based; details: thrombin 100 nM
In short: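 Cortical explants from E18 Sprague-Dawley rats were grown 2–3 days on poly-D-lysine, serum-free after 24 h, then pre-incubated 30–60 min at 37 °C with inhibitor or vehicle before repellent factor challenge for 1–30 min. Collapse was graded in randomly selected growth cones in aldehyde-fixed cultures (fixed after 7 min) or imaged live.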

[3] = tested on: cPLA2; assay: cPLA2 activation in AT-2 cells; type: biochemical, rat
Description: FIG. 9. Thrombin activation of cPLA2 in AT-2 cells incubated with either ^14C-AA-PI, -PC or -PE as substrate, for 10 min at 37° C. Released AA and diacylglycerol were isolated and counted.

[4] = tested on: PC-3M-MM2 cells; assay: Boyden chamber assay, PC-3M-MM2 cells; type: cell-based, human
Description: In addition, seven human prostate carcinoma cell lines were used (see Table 2). One or two cell lines of medium to high motility (e.g., PC-3M-MM2 and DU145) are first selected. The PC-3M-MM2 cells disperse rapidly in the dish and, like the MAT-Lu cells, never form colonies. Cells are grown according to standard procedures. Large numbers of aliquots of all cancer cell lines arc collected and frozen in order to avoid the use of higher passage numbers in later experiments. As the experimentation progresses, the motility and morphology of the cells is re-checked to avoid distortion of results by changes in phenotype. For experimental use, cells are kept well below confluence. In order to test for potential effects of the growth matrix, cells are grown for selected experiments not only on serum-conditioned tissue culture plastic but also on laminin, collagen, fibronectin or Matrigel (Life Technologies/GIBCO-BRL, Gaitheresberg, Md.; Becton Dickinson/Collaborative Biomedical Products, Bedford Mass.). […] The motility, of all cells is assessed quantitatively using the (long-term) Boyden chamber assay as described in Boyden, J. Exp. Med. 115:453-466 (1962), incorporated herein by reference. […] The relative number of cells moving within 3-6 hours across the membrane from the upper well is counted in the presence or absence of IGF-1 in the lower chamber.

[5] = tested on: cPLA2; assay: PLA2 activity (14C-AA release) in MAT-Lu cells; type: biochemical, rat; details: thrombin 200 nM
Description: MAT-Lu cells were plated at a density of 0.5×10^6 cells per flask (T-75) and grown as detailed above to approximately 25% confluency. On the day before the experiments, the serum level in the medium was dropped to 1%. Cells were fed with fresh 1% serum-medium 4 hrs prior to harvest. For harvesting, cells were rinsed with Ca^++,Mg^++-free HBSS, covered with 2 ml cold Ca^++-free modified Krebs buffer (220 mM sucrose, 50 mM NaCl, 5 mM KCl, 22 mM HEPES, 10 mM glucose. 1.2 mM NaH2PO4 and 1.2 mM MgCl2, pH 7.3), and placed on ice. Cells were scraped off, pelleted for 5 min at 200 rpm and re-suspended in a minimal volume of Krebs buffer. Aliquots were used to determine protein concentration (Biorad Assay) and phopholipase activity. To measure PLA2 activity 10-12 μg of cell protein was incubated with or without thrombin for 10 min on ice, ^14C-AA-labeled phospholipid substrate (7 μM. 40-60 mCi/mmol) was added, and the mixture was transferred to 37° for 20 min. The reaction was stopped by adding cold cliloroform/methanol (1:2 v/v). Lipid extraction followed by thin-layer chromatography (Negre-Aminou et al., J Neurochem 67:2599-2608 (1996)) isolated the reaction product (identified by co-migration with AA standard), which was then scraped off the plates and analyzed in a scintillation spectrometer (Beckman). In some experiments, especially those involving ^14C-AA-phosphatidylinositol as substrate, the diacylglycerol-containing band (identified by co-migration of standard) also was scraped and counted in order to measure phospholipase C (PLC) activity.

[6] = tested on: MAT-Lu cells; assay: Pseudopod morphometry (pseudopod length assay), MAT-Lu cells; type: cell-based, rat
In short: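 Cells plated at 1×10^4 per 35-mm dish overnight, shifted to serum-free medium 1 h, then exposed to thrombin, AA or HETEs in medium or by local micropipette puff. Phase-contrast images over time at heated stage; length measured from nucleus centre to process tip, analysed by gamma regression and non-parametric tests.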

[7] = tested on: phospholipase C; details: thrombin stimulation as for PLA2
Description: MAT-Lu cells were plated at a density of 0.5×10^6 cells per flask (T-75) and grown as detailed above to approximately 25% confluency. On the day before the experiments, the serum level in the medium was dropped to 1%. Cells were fed with fresh 1% serum-medium 4 hrs prior to harvest. For harvesting, cells were rinsed with Ca^++,Mg^++-free HBSS, covered with 2 ml cold Ca^++-free modified Krebs buffer (220 mM sucrose, 50 mM NaCl, 5 mM KCl, 22 mM HEPES, 10 mM glucose. 1.2 mM NaH2PO4 and 1.2 mM MgCl2, pH 7.3), and placed on ice. Cells were scraped off, pelleted for 5 min at 200 rpm and re-suspended in a minimal volume of Krebs buffer. Aliquots were used to determine protein concentration (Biorad Assay) and phopholipase activity. […] Lipid extraction followed by thin-layer chromatography (Negre-Aminou et al., J Neurochem 67:2599-2608 (1996)) isolated the reaction product (identified by co-migration with AA standard), which was then scraped off the plates and analyzed in a scintillation spectrometer (Beckman). In some experiments, especially those involving ^14C-AA-phosphatidylinositol as substrate, the diacylglycerol-containing band (identified by co-migration of standard) also was scraped and counted in order to measure phospholipase C (PLC) activity.

[8] = tested on: AT-2 cells; assay: Pseudopod length / retraction assay, AT-2 cells; type: cell-based, rat; details: AA even at 10^−1M
Description: Pseudopod Morphometry. To study the effects of various agents on pseudopods on a short-term basis, we measured pseudopod lengths. Cells plated in 35-mm diameter dishes at low density (1×10^4 per dish) were incubated overnight, tie medium was changed, and the experiments were run four hours later. First, cultures were shifted to serum-free medium, which was replaced one hour later by serum-free medium with or without the various agents (thrombin, AA or HETEs). Care was taken to avoid heat and light inactivation of the eicosanoids. Culture dishes were placed on a Zeiss inverted microscope equipped with a heated stage and viewed with a 16×phase contrast objective lens. Randomly selected fields of the cultures, containing generally about 20 cells each, were recorded, digitized and stored in the computer at the onset of the experiment and at different times thereafter.
In some cases, individual cells were monitored over different periods of time immediately after introduction of the reagent, either by mixing it into the medium or by applying it locally to one end of the cell. Local application was done with a “puffer” system that expels microliter amounts of the desired solution from a micromanipulator-controlled micropipette tip. Cell morphology was recorded, and the captured images were analyzed with a Power Macintosh computer using NIH Image. Cell process length was measured from the center of the nucleus to the end of the process. Characterization of the frequencies of pseudopod lengths, at a fixed time for each of a sequence of concentrations of reagent, utilized a gamma regression model with an inverse quadratic linear predictor (McCullagh and Nelder, Generalized Linear Models 2d ed., pp. 291-292 (Chapman & Hall, 1989), separately fit to each concentration data set. Although no formal goodness-of-fit tests were carried out, in virtually every case there was good visual representation of the pattern of response (see FIG. 14). Most data, however, are shown as whisker-box plots, where the center point represents the 50%, the ends of the box the […] and 75%, and the “whiskers” the 5% and 95% quantiles (e.g., FIG. 11). Statistical comparisons of pseudopod lengths for different treatments were done by standard non-parametric techniques (Wilcoxon Rank Sum or Kruskal-Wallis Tests), as judged appropriate. Polynomial curve fittings were done by standard least-squares techniques. Statistical analyses and graphing were done with the use of SAS procedures: Reg, Phreg, Nparlway and Plot (SAS institute Inc., Cary, N.C.).

[9] = tested on: PLA2; details: Table 3a, 100 nM
Description: Phospholipase Assays. For PLA2 assays, GCPs suspended in modified Ca^2+-free Krebs buffer (10-30 μg protein/assay) were first incubated for 10 min on ice in the presence or absence of effectors. Subsequently, phospholipid substrate (PC, PE or PI) containing radiolabelled AA (7 μM; 50,000 cpm/assay) was added and the reaction carried out at 37° C. for 10 minutes. Typically, assay mixtures contained 10 μM CaCl2; specific modifications are described in the figure legends. For phospholipase C (PLC) assays, conditions were the same when run in parallel with PLA2 assays. When PLC assays were run independently, Ca^2+ was increased to 1 mM. Reactions were terminated by the addition of 3.75 volumes of cold chloroform/methanol (1:2). PLA2 assays also were performed on neurons dissociated from fetal rat cerebral cortex. The assay conditions were the same as those just described for GCPs.
Products recovered in chloroform were loaded onto silica gel 60 TLC plates and developed as described earlier (Nègre-Aminou and Pfenninger, 1993) in hexane/ether/acetic acid (40:60:1). AA and DG were identified on TLC by co-migration with authentic standards. The appropriate bands were excised into scintillation fluid and counted on a Beckman LS 1801 scintillation sprectrometer. All assays were run in triplicate.

thrombin: potent growth cone repellent; commercially available thrombin (Sigma); rat thrombin in Boyden assays
effect on DG release from PI [1]: inhibits DG release, rather than stimulating it | time until most growth cones are fully collapsed [2]: 10 to 20 min | growth cone collapse, agent alone ([2]; TRAP (100 mM), 12(S)-HETE 10^−7 M): most growth cones are fully collapsed | stimulation of cPLA2, PC substrate [3]: over 100 fold | stimulation of cPLA2, PE substrate [3]: about 30 fold | stimulation of cPLA2, PI substrate [3]: over 100 fold | effect on cell motility [4]: potent inhibitor of cell motility | increase of PLA2 activity (AA release), PE substrate [5]: 40-50 fold | time to pseudopod retraction after addition to cells in culture dish [6]: 5 to 10 min | effect of agent alone on pseudopod length ([6]; typically 15 min exposure): caused pseudopod shortening in MAT-Lu cells within minutes of administration | effect on DAG release from PI / phospholipase C (words) [7]: reduced DAG release rather than stimulating it | effect on DAG release from PI / phospholipase C (words) ([7]; listed as Thrombin): did not activate phospholipase C in MAT-Lu cells | pseudopod retraction response of AT-2 cells [8]: essentially did not respond | net activity (pmol/min/mg protein), intact neurons ([9]; substrate PE): 26.8 ± 1.9 pmol/min/mg protein | net activity (pmol/min/mg protein), intact neurons ([9]; substrate PI): 42.5 ± 16 pmol/min/mg protein
